Results as given in PMC5465209 (Scientific Reports, 2017).

Legend:
[1] = tested on: GFP-NFAT-1 in HEK293 cells; assay: Inhibition of GFP-NFAT-1 nuclear translocation; assay type: cell-based; settings: 1 μM FK506 for 2 h, then 500 nM ionomycin 15 min; transfected HEK 293 cells; five independent experiments
Protocol: HEK293 cells (ATCC) were plated onto glass cover slips in 35-mm culture dishes. GFP-NFAT-1 plasmid[6] was transfected with Lipofectamine 2000 (ThermoFisher Scientific K.K., Yokohama, Japan). […] The nuclear fluorescence intensity was quantified using a Fluoview device (Olympus, Tokyo, Japan) and measured with AquaCosmos software (Hamamatsu Photonics). The fluorescent intensity of 10 cells was counted; five sets of experiments were conducted. Background fluorescent intensity was subtracted from all experiments.

[2] = tested on: IL-2 protein in Jurkat cells; assay: Inhibition of the production of IL-2 (ELISA of supernatant); assay type: cell-based, human; settings: 100 nM FK506, then PMA and ionomycin 12 h
Protocol: Jurkat cells (1 × 10^5) were treated with medium containing peptides or FK506, then incubated with the same amount of medium containing 200 nM PMA (Sigma-Aldrich) and 4 μM ionomycin for an additional 12 h. IL-2 protein was detected in the supernatant of cells using an ELISA kit according to the manufacturer’s instructions (eBioscience, San Diego, CA, USA).

[3] = tested on: βTC6 cells; assay: Insulin secretion in βTC6 cells (mouse insulin ELISA); assay type: cell-based; settings: FK506 0.01, 0.1 and 1 μM for 97 h, p < 0.05 for 0.01 μM, p < 0.01 for 0.1 and 1 μM, dose-dependent
Protocol: (§1) After 48, 96, or 144 hours, fresh medium was added; the samples taken to investigate the release of insulin were taken 1 hour later and assayed with a mouse insulin ELISA kit (Shibayagi, Shibukawa, Gunma, Japan).

[4] = tested on: isolated islets from BALB/c mice; assay: Insulin secretion in isolated islets (mouse insulin ELISA); assay type: cell-based; settings: FK506 0.01, 0.1 and 1 μM for 97 h, p < 0.05 for 0.01 μM, p < 0.01 for 0.1 and 1 μM, dose-dependent
Protocol: as §1

[5] = tested on: secretion of insulin; settings: cited from earlier work
Text: An important mechanism whereby calcineurin promotes the activation of T cells and the induction of cytokine-related genes is largely attributed to a family of transcriptional regulators that are referred to as NFAT. The immunosuppressants cyclosporine A and FK506, which are used clinically to prevent transplant rejection, inhibit the activity of calcineurin phosphatase on all its protein substrates, including NFAT[1], [2].

## C=CC[C@@H]1/C=C(\C)C[C@H](C)C[C@H](OC)[C@H]2O[C@@](O)(C(=O)C(=O)N3CCCC[C@H]3C(=O)O[C@H](/C(C)=C/[C@@H]3CC[C@@H](O)[C@H](OC)C3)[C@H](C)[C@@H](O)CC1=O)[C@H](C)C[C@@H]2OC [FK506]
[1]
  Ionomycin-induced GFP-NFAT-1 nuclear translocation: strong inhibition
[2]
  Production of IL-2: completely inhibited
[3]
  Insulin secretion: significantly inhibited
[4]
  Insulin secretion: significantly inhibited
[5]
  Secretion of insulin: dose-dependent decrease
